# Target: T1, muscarinic receptor (rat brain)
# T1 construct: gene Chrm1; native receptors in particulate (40 000 g pellet) preparation of whole brain without cerebellum; subtype mixture not resolved
# Test: [3H]NMS displacement, rat brain membranes, filtration
# Format: binding
# Conditions: [3H]NMS 0.3 nM (0.5 nM in data analysis), 30 mM Na+/HEPES pH 7.5, 25 °C, 60 min; competitive
# Description: [3H]NMS displacement, rat brain membranes, filtration on muscarinic receptor (rat brain)
row,SMILES,IC50
1,COc1cc(O)c(C(=O)Nc2nc(C(=O)NCCN(C(C)C)C(C)C)cs2)cc1OC [Acotiamide],44.2 µM
2,Cn1c(=O)cc(N2CCC[C@@H](N)C2)n(Cc2ccccc2C#N)c1=O [Alogliptin],81.5 µM
3,CN(C)CCC=C1c2ccccc2CCc2ccccc21 [Amitriptyline],0.0293 µM
4,CC(C)COCC(CN(Cc1ccccc1)c1ccccc1)N1CCCC1 (stereo not drawn) [Bepridil],20.8 µM
5,OC(CCN1CCCCC1)(c1ccccc1)C1CC2C=CC1C2 (stereo not drawn) [Biperiden],0.0105 µM
6,CN(C)CCC(c1ccc(Cl)cc1)c1ccccn1 (stereo not drawn) [Chlorpheniramine],5.1 µM
7,CN(C)CCCN1c2ccccc2Sc2ccc(Cl)cc21 [Chlorpromazine],0.376 µM
8,Clc1ccc(C(OCCN2CCCCC2)c2ccccc2)cc1 (stereo not drawn) [Cloperastine],0.0003 µM
9,OC(CCCN1CCCCC1)(c1ccccc1)c1ccccc1 [Difenidol],0.325 µM
10,CC(C)N(CCC(C(N)=O)(c1ccccc1)c1ccccn1)C(C)C (stereo not drawn) [Disopyramide],5.99 µM
11,CN(CCCCCCN(C)C(=O)Oc1ccc[n+](C)c1)C(=O)Oc1ccc[n+](C)c1 [Distigmine],1.7 µM
12,COc1cc2nc(N3CCN(C(=O)C4COc5ccccc5O4)CC3)nc(N)c2cc1OC (stereo not drawn) [Doxazosin],13.2 µM
13,CNCC[C@H](Oc1cccc2ccccc12)c1cccs1 [Duloxetine],19.3 µM
14,OC[C@H]1O[C@@H](c2ccc(Cl)c(Cc3ccc(O[C@H]4CCOC4)cc3)c2)[C@H](O)[C@@H](O)[C@@H]1O [Empagliflozin],22.1 µM
15,CCc1ccc(C(=O)C(C)CN2CCCCC2)cc1 (stereo not drawn) [Eperisone],0.902 µM
16,NC1=NCC2c3ccccc3Cc3ccccc3N12 (stereo not drawn) [Epinastine],26.3 µM
17,CC(C)C(=O)Oc1ccc(CO)cc1[C@H](CCN(C(C)C)C(C)C)c1ccccc1 [Fesoterodine],0.012 µM
18,Cc1c(-c2ccccc2)oc2c(C(=O)OCCN3CCCCC3)cccc2c1=O [Flavoxate],11.5 µM
19,CCC(=O)O[C@]1(C(=O)SCF)[C@H](C)C[C@H]2[C@@H]3C[C@H](F)C4=CC(=O)C=C[C@]4(C)[C@@]3(F)[C@@H](O)C[C@@]21C [Fluticasone Propionate],8 µM
20,C[C@@H]1C[C@H]2[C@@H]3C[C@H](F)C4=CC(=O)C=C[C@]4(C)[C@@]3(F)[C@@H](O)C[C@]2(C)[C@@]1(OC(=O)c1ccco1)C(=O)SCF [Fluticasone furoate],18.2 µM
21,COc1ccc(CC(C)NCC(O)c2ccc(O)c(NC=O)c2)cc1 (stereo not drawn) [Formoterol],14.3 µM
22,CN(C)CCCN1c2ccccc2CCc2ccccc21 [Imipramine],0.279 µM
23,CCc1cc2c(cc1CC)CC(NC[C@H](O)c1ccc(O)c3[nH]c(=O)ccc13)C2 [Indacaterol],39.3 µM

row,SMILES,IC50
1,CCCC[C@H](C)C[C@H](O)/C=C/[C@H]1[C@H](O)CC(=O)[C@@H]1CCCC/C=C/C(=O)O [Limaprost],56.1 µM
2,CC#CCn1c(N2CCC[C@@H](N)C2)nc2c1c(=O)n(Cc1nc(C)c3ccccc3n1)c(=O)n2C [Linagliptin],2.89 µM
3,C[N+]1(C)CCCC(OC(=O)C(O)(c2ccccc2)c2ccccc2)C1 (stereo not drawn) [Mepenzolate],0.00306 µM
4,Nc1nc(CC(=O)Nc2ccc(CCNC[C@H](O)c3ccccc3)cc2)cs1 [Mirabegron],6.62 µM
5,CNCCC=C1c2ccccc2CCc2ccccc21 [Nortriptyline],0.168 µM
6,OC(CCN1CCCCC1)(c1ccccc1)c1ccccc1 [Pridinol],0.0536 µM
7,CCC(NC(C)C)C(O)c1ccc(O)c2[nH]c(=O)ccc12 (stereo not drawn) [Procaterol],3.9 µM
8,CCCOC(C(=O)OC1CCN(C)CC1)(c1ccccc1)c1ccccc1 [Propiverine],0.35 µM
9,COCCCOc1ccnc(C[S+]([O-])c2nc3ccccc3[nH]2)c1C (stereo not drawn) [Rabeprazole],18.1 µM
10,Cc1cncc(CN2CCC(=C3c4ccc(Cl)cc4CCc4cccnc43)CC2)c1 [Rupatadine],1.51 µM
11,OCc1cc(C(O)CNCCCCCCOCCCCc2ccccc2)ccc1O (stereo not drawn) [Salmeterol],6.1 µM
12,CN1CCC2=C(C1)c1ccccc1Cc1ccccc12 [Setiptiline],1.97 µM
13,O=C(O[C@H]1CN2CCC1CC2)N1CCc2ccccc2[C@@H]1c1ccccc1 [Solifenacin],0.00738 µM
14,Clc1ccccc1CN1CCc2sccc2C1 [Ticlopidine],18 µM
15,C[N+]1(C)[C@@H]2C[C@@H](OC(=O)C(O)(c3cccs3)c3cccs3)C[C@H]1[C@@H]1O[C@@H]12 [Tiotropium],0.00039 µM
16,CC(CN(C)C)CN1c2ccccc2CCc2ccccc21 (stereo not drawn) [Trimipramine],0.099 µM
17,CC(C)(C)NCC(O)c1ccccc1Cl (stereo not drawn) [Tulobuterol],71.9 µM
18,OC(c1ccccc1)(c1ccccc1)C12CC[N+](CCOCc3ccccc3)(CC1)CC2 [Umeclidinium],0.00015 µM
19,O=C(Nc1ccc(C[C@@H]2CC[C@H]([C@H](O)c3ccccc3)N2)cc1)[C@@H]1CCc2nccc(=O)n21 [Vibegron],5.32 µM
20,OCc1cc([C@@H](O)CNCCCCCCOCCOCc2c(Cl)cccc2Cl)ccc1O [Vilanterol],6.1 µM
21,CNCc1cc(-c2ccccc2F)n(S(=O)(=O)c2cccnc2)c1 [Vonoprazan],1.7 µM
22,CN(C)CCOC1=Cc2ccccc2Sc2ccc(Cl)cc21 [Zotepine],0.554 µM

# From article PMC11503540, “Development of a pharmacological evidence‐based anticholinergic burden scale for medications commonly used in older adults” (Geriatrics & Gerontology International, 2023)
